Where two headings read alike, the source gives them in different places.
Legend:
pKa = format: physicochemical
[1] = biological target: P-glycoprotein (MDR1-transfected MDCK cell line) (Homo sapiens (Human), UniProt P08183); test: Pgp Liability MDR1 Er; format: in vitro ADME; conditions: Papp BA/AB
Text: MDR1 Efflux Ratio (MDR Er) from MDR1-transfected MDCK line cell line represents the ratio of permeability, Papp BA/AB. Procedure utilized from (Feng, B.; Mills, J. B.; Davidson, R. E.; Mireles, R. J.; Janiszewski, J. S.; Troutman, M. D.; de Morais, S. M. In vitro P-glycoprotein assays to predict the in vivo interactions of P-glycoprotein with drugs in the central nervous system. Drug Metab. Dispos. 2008, 36, 268-275.

BACE1 = BACE1 (Homo sapiens (Human), UniProt P56817); test: BACE1 Cell-Free Assay (fluorescence polarization); format: biochemical
[2] = HLM Clint (clearance in human liver microsomes); format: in vitro ADME; conditions: for CLint scaled: human
CYP2D6 = CYP2D6 (Homo sapiens (Human), UniProt P10635); test: General Multi-Point Cocktail DDI IC50 Assay
Method: General Multi-Point Cocktail DDI IC50 Assay Conditions:
The incubation volume is 0.1 mL, utilizing a 384-well plate format. […] Substrate concentrations are near Km values that had been previously determined and incubation times are selected based on determinations of reaction velocity linearity. […] Samples are directly injected on an HPLC/MS/MS system. A Biomek FX workstation is used for liquid handling and sample incubation.

hERG channel = hERG channel (Homo sapiens (Human), UniProt Q12809); test: hERG Patch Clamp Assay; format: cell-based
Method: After a ˜30 minute recovery period, experiments were initiated.
hERG Potassium Channel Current Recordings and Data Analysis:
The intracellular recording saline was composed of (in […]): 70 KF, 60 KCl, 15 NaCl, 5 EGTA, 5 HEPES, and adjusted to pH 7.2±0.1 with KOH. […] Test pulses were delivered at a frequency of 0.25 Hz. Up to 4 different concentrations were studied on each cell, each exposure lasting 5 minutes or until steady-state effects were observed. […] Using Sophion Qpatch Assay Software, the amplitude of the peak outward hERG current upon repolarizing ramp was measured. Current amplitude was determined by taking the average of the last 5 current peaks under each treatment condition. […] When possible, a concentration-response curve was plotted and the data were fitted using Qpatch software to determine an IC50. The P<0.05 was considered statistically significant.

[3] = system: sAPPβ, the primary cleavage product of BACE1, in H4 human neuroglioma cells over-expressing the wild-type human APP695; test: sAPPβ Whole-Cell Assay (WCA); format: cell-based; conditions: 18 h
Method: sAPPβ Whole-Cell Assay (WCA):
sAPPβ, the primary cleavage product of BACE1, was determined in H4 human neuroglioma cells over-expressing the wild-type human APP695. […] The colorimetric reaction was read by an EnVision (PerkinElmer) plate-reader.

GSH Incubation Assay [4] = format: in vitro ADME; conditions: incubation in human liver microsomes in the presence of GSH
human BACE2 = human BACE2 (Homo sapiens (Human), UniProt Q9Y5Z0); test: BACE2 binding assay (SPA); conditions: ratio of IC50 from BACE2 and BACE1 binding assays, pH 6.0
Text: BACE2/BACE1 Binding Ratio:
The BACE1 and BACE2 binding assays measured beta-site amyloid precursor protein-cleaving enzyme (BACE) binding as a decrease in the counts of radioligand bound in a scintillation proximity assay (SPA). Utilizing a radiolabeled small molecule BACE active site binding inhibitor and crude HEK cell membrane preparations over-expressing full length BACE1 or BACE2, the binding of enzyme by test compound was monitored as a reduction of specific counts bound at pH 6.0. Full length human BACE1 or BACE2 over-expressed in HEK cells was prepared by Pfizer scientists. Frozen stock cell paste was reacted in 50 mM sodium acetate buffer (pH=6.0) containing 3H-(4aR,6R,8aS)-8a-(2,4-difluorophenyl)-6-(1-methyl-1H-pyrazol-4-yl)-4,4a,5,6,8,8a-hexahydropyrano[3,4-d][1,3]thiazin-2-amine ligand, SPA bead and 60 μM to 600 pM of test compound in an assay volume of 27 uL. The compound plate also contained positive (BACE inhibitor) and negative (DMSO) control wells. The binding was carried out at room temperature for 30 minutes and then the plates were read on a TriLux Microbeta reader to determine the number of counts bound.

GSH Incubation Assay [5] = format: in vitro ADME; conditions: for Observed GSH adducts: Incubations with glutathione (50 mM) at 37° C. in buffer for 4 hours; for formation of GSH adducts: following incubations
Method: The test compound (10 μM in DMSO) was incubated with L-glutathione (50 mM, prepared in 100 mM potassium phosphate buffer) at 37° C. for 4 hours and then analyzed by HPLC-UV/MS/MS without work-up. Thermo Accela HPLC and Velos Pro Orbitrap Elite (S/N: SN05189B) operating in positive mode with a source voltage of 3.5 kV with data dependant processing. HPLC with a Phenomenox Kinetex C18, 1.7 μM, 2.1×100 mm. column (P/N: 00D-4475-AN), 5% acetonitrile/95% 0.1% formic acid for 0.5 min then a 7.0 min linear gradient to 40% acetonitrile/60% 0.1% formic acid, 400 μL/min., column temperature 45° C. Product assignments were based on high resolution mass spectrometer fragmentation.

[6] = Measurement determined at Analyza
[7] = MDR1-transfected MDCK cell line, ratio of permeability
[8] = Table 4, read-out: BACE1 Cell Free IC50
[9] = CHO cell transfected with hERG gene, automated Qpatch HT system
[10] = CHO cells transfected with hERG
[11] = Measurement determined at Analyza, read-out: pKa
[12] = geometric mean of 2-4 determinations unless otherwise indicated (b: ≧5; c: single determination), read-out: BACE1 Cell-free Assay IC50

Chain of P-glycoprotein (MDR1-transfected MDCK cell line) (P08183 whole entry): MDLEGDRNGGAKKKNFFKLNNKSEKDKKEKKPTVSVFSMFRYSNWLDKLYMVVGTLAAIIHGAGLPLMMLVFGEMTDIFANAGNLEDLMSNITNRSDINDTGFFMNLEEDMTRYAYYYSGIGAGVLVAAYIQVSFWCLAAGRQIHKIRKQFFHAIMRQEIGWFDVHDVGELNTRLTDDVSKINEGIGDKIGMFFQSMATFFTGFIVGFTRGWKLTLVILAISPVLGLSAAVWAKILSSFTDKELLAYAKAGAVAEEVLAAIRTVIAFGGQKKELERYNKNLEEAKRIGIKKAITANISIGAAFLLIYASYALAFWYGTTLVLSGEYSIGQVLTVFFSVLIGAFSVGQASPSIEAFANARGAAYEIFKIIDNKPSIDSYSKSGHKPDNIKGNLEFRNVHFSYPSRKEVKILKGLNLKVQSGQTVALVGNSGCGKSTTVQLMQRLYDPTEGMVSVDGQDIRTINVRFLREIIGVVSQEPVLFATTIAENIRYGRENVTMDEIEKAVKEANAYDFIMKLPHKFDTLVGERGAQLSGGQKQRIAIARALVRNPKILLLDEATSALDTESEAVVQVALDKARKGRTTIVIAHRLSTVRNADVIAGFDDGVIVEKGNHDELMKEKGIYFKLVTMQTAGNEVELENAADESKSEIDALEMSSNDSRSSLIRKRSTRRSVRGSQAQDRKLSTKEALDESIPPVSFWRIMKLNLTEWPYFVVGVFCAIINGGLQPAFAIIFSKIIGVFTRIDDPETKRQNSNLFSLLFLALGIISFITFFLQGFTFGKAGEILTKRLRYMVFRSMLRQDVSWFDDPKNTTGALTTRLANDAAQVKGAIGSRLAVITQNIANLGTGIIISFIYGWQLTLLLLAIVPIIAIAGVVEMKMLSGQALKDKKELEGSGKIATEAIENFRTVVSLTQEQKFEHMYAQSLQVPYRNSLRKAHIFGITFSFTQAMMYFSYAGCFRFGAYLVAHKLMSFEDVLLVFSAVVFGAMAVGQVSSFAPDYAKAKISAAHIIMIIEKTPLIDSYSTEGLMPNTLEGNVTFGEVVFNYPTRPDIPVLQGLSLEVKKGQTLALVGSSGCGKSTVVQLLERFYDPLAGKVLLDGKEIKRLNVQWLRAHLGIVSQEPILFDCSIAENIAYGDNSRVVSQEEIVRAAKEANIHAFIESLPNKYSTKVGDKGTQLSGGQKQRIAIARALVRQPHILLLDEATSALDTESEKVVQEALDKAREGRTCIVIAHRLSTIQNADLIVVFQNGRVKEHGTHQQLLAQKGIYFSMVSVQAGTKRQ
Chain of CYP2D6 (P10635 whole entry): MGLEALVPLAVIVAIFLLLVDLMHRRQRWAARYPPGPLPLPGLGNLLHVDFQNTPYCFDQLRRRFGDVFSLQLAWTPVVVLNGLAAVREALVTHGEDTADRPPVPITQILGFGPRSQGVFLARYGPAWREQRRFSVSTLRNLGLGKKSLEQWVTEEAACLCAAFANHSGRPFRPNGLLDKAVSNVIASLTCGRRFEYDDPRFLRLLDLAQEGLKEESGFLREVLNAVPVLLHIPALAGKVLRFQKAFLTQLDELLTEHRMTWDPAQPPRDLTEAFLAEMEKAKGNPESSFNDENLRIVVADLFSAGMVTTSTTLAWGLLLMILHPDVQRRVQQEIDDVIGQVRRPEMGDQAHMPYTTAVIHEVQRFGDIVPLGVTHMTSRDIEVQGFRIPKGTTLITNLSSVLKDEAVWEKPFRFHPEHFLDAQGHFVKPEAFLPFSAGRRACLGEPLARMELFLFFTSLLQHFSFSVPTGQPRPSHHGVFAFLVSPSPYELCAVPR
Chain of BACE1 (P56817 46-457): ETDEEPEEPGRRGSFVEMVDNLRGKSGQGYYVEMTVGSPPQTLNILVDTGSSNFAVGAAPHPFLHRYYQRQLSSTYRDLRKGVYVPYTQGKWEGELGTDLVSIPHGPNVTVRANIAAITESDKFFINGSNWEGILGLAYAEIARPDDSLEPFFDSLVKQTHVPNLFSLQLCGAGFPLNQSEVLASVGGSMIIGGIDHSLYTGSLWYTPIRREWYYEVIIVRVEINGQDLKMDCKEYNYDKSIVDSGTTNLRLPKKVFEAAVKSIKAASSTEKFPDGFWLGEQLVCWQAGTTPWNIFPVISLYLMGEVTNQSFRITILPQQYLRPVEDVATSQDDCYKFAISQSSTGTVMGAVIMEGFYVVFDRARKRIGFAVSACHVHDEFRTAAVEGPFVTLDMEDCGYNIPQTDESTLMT
Chain of hERG channel (Q12809 whole entry): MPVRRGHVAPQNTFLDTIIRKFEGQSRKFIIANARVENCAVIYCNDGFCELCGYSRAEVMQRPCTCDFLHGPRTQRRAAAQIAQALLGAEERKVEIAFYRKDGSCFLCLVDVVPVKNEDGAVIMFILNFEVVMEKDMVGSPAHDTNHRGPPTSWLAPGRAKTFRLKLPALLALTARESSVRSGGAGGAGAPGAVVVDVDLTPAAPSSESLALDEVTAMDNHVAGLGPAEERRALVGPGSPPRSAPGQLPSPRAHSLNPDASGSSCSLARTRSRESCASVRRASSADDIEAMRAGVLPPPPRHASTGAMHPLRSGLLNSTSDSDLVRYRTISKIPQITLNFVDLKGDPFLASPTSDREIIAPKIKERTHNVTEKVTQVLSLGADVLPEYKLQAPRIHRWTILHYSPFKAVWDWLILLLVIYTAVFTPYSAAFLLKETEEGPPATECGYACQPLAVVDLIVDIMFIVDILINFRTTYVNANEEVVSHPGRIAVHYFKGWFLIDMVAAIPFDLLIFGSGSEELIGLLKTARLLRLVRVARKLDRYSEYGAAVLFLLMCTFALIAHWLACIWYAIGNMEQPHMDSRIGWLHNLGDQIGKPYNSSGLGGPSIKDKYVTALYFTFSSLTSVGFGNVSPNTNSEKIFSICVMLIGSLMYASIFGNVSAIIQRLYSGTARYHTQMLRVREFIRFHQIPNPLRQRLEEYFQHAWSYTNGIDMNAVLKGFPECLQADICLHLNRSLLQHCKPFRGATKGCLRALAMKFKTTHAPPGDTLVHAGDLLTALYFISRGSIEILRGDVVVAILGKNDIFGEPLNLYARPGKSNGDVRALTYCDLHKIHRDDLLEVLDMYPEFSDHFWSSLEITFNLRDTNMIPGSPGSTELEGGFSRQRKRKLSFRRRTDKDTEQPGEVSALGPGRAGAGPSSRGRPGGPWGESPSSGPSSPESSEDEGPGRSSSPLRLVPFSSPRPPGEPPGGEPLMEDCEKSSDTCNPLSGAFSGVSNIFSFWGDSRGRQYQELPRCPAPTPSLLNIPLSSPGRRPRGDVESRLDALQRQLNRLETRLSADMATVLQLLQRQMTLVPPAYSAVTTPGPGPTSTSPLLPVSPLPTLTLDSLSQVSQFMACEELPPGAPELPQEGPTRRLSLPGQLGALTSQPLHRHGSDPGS
Chain of human BACE2 (Q9Y5Z0 63-518): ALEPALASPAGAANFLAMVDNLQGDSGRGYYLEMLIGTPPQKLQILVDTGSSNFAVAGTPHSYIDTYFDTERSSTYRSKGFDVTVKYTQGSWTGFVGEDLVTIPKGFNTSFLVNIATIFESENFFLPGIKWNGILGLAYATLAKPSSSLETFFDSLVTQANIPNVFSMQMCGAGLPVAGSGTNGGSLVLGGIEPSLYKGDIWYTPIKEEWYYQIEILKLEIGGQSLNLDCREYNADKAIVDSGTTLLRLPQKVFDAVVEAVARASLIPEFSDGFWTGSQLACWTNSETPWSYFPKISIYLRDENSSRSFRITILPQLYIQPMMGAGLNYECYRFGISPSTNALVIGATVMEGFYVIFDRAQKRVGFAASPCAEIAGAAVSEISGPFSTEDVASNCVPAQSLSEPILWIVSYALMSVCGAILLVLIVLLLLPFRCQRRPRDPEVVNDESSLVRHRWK

Row | SMILES | IC50 (BACE1; [12]) [nM] | pKa (pKa; [6]) | Pgp liability MDR1 Er [1, 7] | Aniline Structural Alert (Aniline structural alert) | IC50 (BACE1; [8]) [nM] | HLM CLint [2] | IC50 (hERG channel; [9]) [nM] | other results
1 | C[C@H]1C[C@H]2CSC(N)=N[C@@]2(c2nc(NC(=O)c3ccc(OC(F)F)cn3)cs2)CO1 [Comparator 1] | – | 7.0 | 7.1 | No | – | – | – | –
2 | C[C@H]1C[C@H]2CSC(N)=N[C@@]2(c2nc(NC(=O)c3ccc(OC(F)F)cn3)ccc2F)CO1 [Comparator 2] | – | 8.7 | 14.2 | No | 43 | 22.9 mL/min/kg^ | – | pKa (pKa): 8.7; IC50 (CYP2D6; read-out: CYP2D6 IC50): < 30 nM
3 | C[C@H]1C[C@H]2CSC(N)=N[C@@]2(c2nc(NC(=O)c3ccc(OC(F)F)cn3)ccc2F)CO1 [Comparator 3, reference compound] | – | 8.3 | 5.1 | Yes | 3 | 19.8 mL/min/kg^ | 400 | –
4 | NC1=N[C@@]2(c3cc(NC(=O)c4ccc(OC(F)F)cn4)ccc3F)COCC[C@H]2CS1 [Comparator 4, reference compound] | – | 8.2 | 6.8 | Yes | 9 | 8.3 mL/min/kg | 500 | IC50 [3]: < 1 nM; IC50 (CYP2D6; microsomes): < 100 nM
5 | C[C@H]1C[C@H]2CSC(N)=N[C@@]2(c2cc(NC(=O)c3ccc(C#N)cn3)cs2)CO1 [Comparator 5] | – | – | – | No | – | – | – | formation of GSH adducts (GSH Incubation Assay [4]): formation of chemical adducts
6 | NC1=N[C@@]2(c3cc(NC(=O)c4ccc(OC(F)F)cn4)ccc3F)CO[C@@H](C(F)(F)F)C[C@H]2CS1 [Comparator 6, reference compound] | – | 7.7 | 3.2 | Yes | 6 | <12.8 mL/min/kg | – | IC50 [3]: < 1 nM; BACE2/BACE1 Binding Ratio (human BACE2): 1.0
7 | C[C@H]1C[C@H]2CSC(N)=N[C@@]2(c2cc(NC(=O)c3ccc(Cl)cn3)ccc2F)CO1 [Comparator 7, reference compound] | – | 8.2 | 3.03 | Yes | 1 | 34.4 mL/min/kg^ | 200 | IC50 [3]: < 1 nM; BACE2/BACE1 Binding Ratio (human BACE2): 1.0
8 | C[C@H]1C[C@H]2CSC(N)=N[C@@]2(c2nc(NC(=O)c3ccc(OC(F)F)cn3)cs2)CO1 [Example 1, N-{2-[(4aR,6S,8aR)-2-amino-6-methyl-4,4a,5,6-tetrahydropyrano[3,4-d][1,3]thiazin-8a(8H)-yl]-1,3-thiazol-4-yl}-5-(difluoromethoxy)pyridine-2-carboxamide] | – | – | – | – | – | <8 mL/min/kg | 9900 | IC50 ([3]; Homo sapiens): 5 nM; IC50 (hERG channel; [10]): > 5000 nM; pKa (pKa; [11]): 6.8; CLint scaled [2]: < 8 mL/min/kg; Pgp liability MDR1 Er ([1]; MDR1-transfected MDCK): < 2.5; Observed GSH adducts (GSH Incubation Assay [5]): Negative; formation of GSH adducts (GSH Incubation Assay [5]): not detected; IC50 (CYP2D6): > 30000 nM; IC50 (CYP2D6; human, microsomes, pH 7.4): > 30000 nM
9 | C[C@H]1C[C@H]2CSC(N)=N[C@@]2(c2nc(NC(=O)c3ccc(Cl)cn3)cs2)CO1 [Example 7, N-{2-[(4aR,6S,8aR)-2-amino-6-methyl-4,4a,5,6-tetrahydropyrano[3,4-d][1,3]thiazin-8a(8H)-yl]-1,3-thiazol-4-yl}-5-chloropyridine-2-carboxamide] | – | – | – | No | – | <8 mL/min/kg | 9000 | IC50 ([3]; Homo sapiens): 4 nM; IC50 (hERG channel; [10]): > 5000 nM; pKa (pKa; [11]): 6.9; CLint scaled [2]: < 8 mL/min/kg; Pgp liability MDR1 Er ([1]; MDR1-transfected MDCK): < 2.5; Observed GSH adducts (GSH Incubation Assay [5]): Negative; formation of GSH adducts (GSH Incubation Assay [5]): not detected; IC50 (CYP2D6): > 30000 nM; IC50 (CYP2D6; human, microsomes, pH 7.4): > 30000 nM

More lines, main results first:

Row | IC50 (BACE1; [12]) [nM] | SMILES | pKa (pKa; [6]) | Pgp liability MDR1 Er [1, 7] | Aniline Structural Alert (Aniline structural alert) | IC50 (BACE1; [8]) [nM] | HLM CLint [2] | IC50 (hERG channel; [9]) [nM] | other results
10 | 23 | Cc1cc(OC(F)F)cnc1C(=O)Nc1csc([C@]23CO[C@@H](C)C[C@H]2CSC(N)=N3)n1 [Example 45, N-{2-[(4aR,6S,8aR)-2-amino-6-methyl-4,4a,5,6-tetrahydropyrano[3,4-d][1,3]thiazin-8a(8H)-yl]-1,3-thiazol-4-yl}-5-(difluoromethoxy)-3-methylpyridine-2-carboxamide] | – | – | No | 23 | <8 mL/min/kg | – | IC50 ([3]; Homo sapiens): 3 nM; pKa (pKa; [11]): 6.9; CLint scaled [2]: < 8 mL/min/kg; Observed GSH adducts (GSH Incubation Assay [5]): Negative; formation of GSH adducts (GSH Incubation Assay [5]): not detected; IC50 (CYP2D6): > 30000 nM; IC50 (CYP2D6; human, microsomes, pH 7.4): > 30000 nM
11 | 85 | C[C@H]1C[C@H]2CSC(N)=N[C@@]2(c2nc(NC(=O)C34CC(C3)C4)cs2)CO1 [Example 105, N-{2-[(4aR,6S,8aR)-2-amino-6-methyl-4,4a,5,6-tetrahydropyrano[3,4-d][1,3]thiazin-8a(8H)-yl]-1,3-thiazol-4-yl}bicyclo[1.1.1]pentane-1-carboxamide] | – | – | – | – | – | – | –
12 | 348 | C[C@H]1C[C@H]2CSC(N)=N[C@@]2(c2nc(NC(=O)C3(C#N)CC3)cs2)CO1 [Example 106, N-{2-[(4aR,6S,8aR)-2-amino-6-methyl-4,4a,5,6-tetrahydropyrano[3,4-d][1,3]thiazin-8a(8H)-yl]-1,3-thiazol-4-yl}-1-cyanocyclopropanecarboxamide] | – | – | – | – | – | – | –
13 | 475 | C[C@H]1C[C@H]2CSC(N)=N[C@@]2(c2nc(NC(=O)C3CC3)cs2)CO1 [Example 107, N-{2-[(4aR,6S,8aR)-2-amino-6-methyl-4,4a,5,6-tetrahydropyrano[3,4-d][1,3]thiazin-8a(8H)-yl]-1,3-thiazol-4-yl}cyclopropanecarboxamide] | – | – | – | – | – | – | –
14 | 94 | C[C@H]1C[C@H]2CSC(N)=N[C@@]2(c2nc(NC(=O)C3(C#N)CCC3)cs2)CO1 [Example 108, N-{2-[(4aR,6S,8aR)-2-amino-6-methyl-4,4a,5,6-tetrahydropyrano[3,4-d][1,3]thiazin-8a(8H)-yl]-1,3-thiazol-4-yl}-1-cyanocyclobutanecarboxamide] | – | – | – | – | – | – | –
15 | 461 | C[C@H]1C[C@H]2CSC(N)=N[C@@]2(c2nc(NC(=O)C3(C)CCC3)cs2)CO1 [Example 109, N-{2-[(4aR,6S,8aR)-2-amino-6-methyl-4,4a,5,6-tetrahydropyrano[3,4-d][1,3]thiazin-8a(8H)-yl]-1,3-thiazol-4-yl}-1-methylcyclobutanecarboxamide] | – | – | – | – | – | – | –

From US9315520B2, “2-amino-6-methyl-4,4a,5,6-tetrahydropyrano[3,4-d][1,3]thiazin-8a(8H)-yl-1,3-thiazol-4-yl amides” (Pfizer Inc., priority 2014, dated 2016)
